Measured values: patent publication US20240041042A1, “1-(PYRIDYL)-5-AZINYLPYRAZOLE DERIVATIVES, AND THEIR USE FOR CONTROL OF UNDESIRED PLANT GROWTH” (Bayer Aktiengesellschaft, priority 2020, published 2024)

Key:
Assay type in all cases: in vivo
[1] = tested on: Avena fatua (AVEFA); assay: Pre-emergence herbicidal action against AVEFA; settings: visual scoring after about 3 weeks vs untreated controls
In short: (§1)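 Greenhouse pot trial: seeds sown, soil-covered, sprayed before emergence with compound in water (0.5% additive; 600 l/ha; ≤320 g/ha). Scoring visual, ~3 weeks, 0–100% scale vs untreated.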

[2] = tested on: Echinochloa crus-galli (ECHCG); assay: Pre-emergence herbicidal action against ECHCG
In short: as §1

[3] = tested on: Setaria viridis (SETVI); assay: Pre-emergence herbicidal action against SETVI
In short: as §1

[4] = tested on: Verconica persica (VERPE); assay: Pre-emergence herbicidal action against VERPE
In short: as §1

[5] = tested on: Viola tricolor (VIOTR); assay: Pre-emergence herbicidal action against VIOTR
In short: as §1

[6] = tested on: Echinochloa crus-galli (ECHCG); assay: Post-emergence herbicidal action against ECHCG
In short: (§2)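 Values are percent visual activity (0% like control, 100% plants dead) after about 3 weeks in the greenhouse. Treatment: post-emergence spray at one-leaf stage, 600 l/ha spray volume, 0.5% additive, doses 320 g/ha or lower.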

[7] = tested on: Pharbitis purpurea (PHBPU); assay: Post-emergence herbicidal action against PHBPU
In short: as §2

[8] = tested on: Setaria viridis (SETVI); assay: Post-emergence herbicidal action against SETVI
In short: as §2

[9] = tested on: Verconica persica (VERPE); assay: Post-emergence herbicidal action against VERPE
In short: as §2

[10] = tested on: Viola tricolor (VIOTR); assay: Post-emergence herbicidal action against VIOTR
In short: as §2

| Compound | Pre-emergence action against AVEFA in % ([1]; 80 g/ha) [%] | Pre-emergence action against AVEFA in % ([1]; 320 g/ha) [%] | Pre-emergence action against ECHCG in % ([2]; dosage 80 g/ha) [%] | Pre-emergence action against ECHCG in % ([2]; dosage 320 g/ha) [%] | Pre-emergence action against SETVI in % ([3]; dosage 80 g/ha) [%] | Pre-emergence action against SETVI in % ([3]; dosage 320 g/ha) [%] | Pre-emergence action against VERPE in % ([4]; dosage 80 g/ha) [%] | Pre-emergence action against VERPE in % ([4]; dosage 320 g/ha) [%] | Pre-emergence action against VIOTR in % ([5]; 320 g/ha, Viola tricolor) [%] | Pre-emergence action against VIOTR in % ([5]; dosage 80 g/ha) [%] | Post-emergence action against ECHCG in % ([6]; dosage 80 g/ha) [%] | Post-emergence action against ECHCG in % ([6]; dosage 320 g/ha) [%] | Post-emergence action against PHBPU in % ([7]; dosage 80 g/ha) [%] | Post-emergence action against PHBPU in % ([7]; dosage 320 g/ha) [%] | Post-emergence action against SETVI in % ([8]; dosage 80 g/ha) [%] | Post-emergence action against SETVI in % ([8]; dosage 320 g/ha) [%] | Post-emergence action against VERPE in % ([9]; 320 g/ha, VERPE) [%] | Post-emergence action against VERPE in % ([9]; dosage 80 g/ha) [%] | Post-emergence action against VIOTR in % ([10]; 80 g/ha) [%] | Post-emergence action against VIOTR in % ([10]; 320 g/ha) [%] |
| --- | --- | --- | --- | --- | --- | --- | --- | --- | --- | --- | --- | --- | --- | --- | --- | --- | --- | --- | --- | --- |
| C[C@@H](Oc1nn(-c2ccccn2)c(-c2cncc(F)c2)c1Cl)C(=O)O [Example I-218] | 80 | 90 | 90 | 100 | 90 | 100 | 90 | 100 | 100 | 100 | 80 | 90 | 90 | 100 | 80 | 80 | 80 | 80 | 80 | 80 |
| COC(=O)[C@@H](C)Oc1nn(-c2ncccc2F)c(-c2ccc(F)nc2)c1Br [Example I-05, Methyl (2R)-2-{[4-bromo-1-(3-fluoropyridin-2-yl)-5-(6-fluoropyridin-3-yl)-1H-pyrazol-3-yl]oxy}propanoate] |  | 90 |  | 100 | 100 | 100 | 100 | 100 | 100 | 90 |  | 90 |  | 90 | 80 | 90 | 90 | 90 | 100 | 100 |
| COCCOC(=O)COc1nn(-c2ncccc2C)c(-c2cncc(F)c2)c1Br [Example I-212] | 80 | 90 | 100 | 100 | 100 | 100 | 80 | 100 | 100 | 100 | 90 | 90 | 90 | 100 | 80 | 80 | 80 | 80 | 80 | 80 |
| COC(=O)C(C)COC(=O)[C@@H](C)Oc1nn(-c2ccccn2)c(-c2cncc(F)c2)c1Br (some centres unmarked) [Example I-188] | 80 | 90 | 100 | 100 | 100 | 100 | 100 | 100 | 100 | 100 | 80 | 90 | 90 | 90 | 80 | 80 | 90 | 80 | 80 | 80 |
| COC(=O)[C@@H](C)Oc1nn(-c2nc(F)ccc2F)c(-c2cncc(F)c2)c1Br [Example I-191] |  | 100 | 90 | 100 | 80 | 100 | 100 | 100 | 100 | 100 | 80 | 80 | 90 | 100 | 80 | 80 | 90 | 80 |  | 80 |
| O=C(O)COc1nn(-c2ncccc2F)c(-c2ccc(F)nc2)c1Br [Example I-17] | 80 | 100 | 90 | 90 | 100 | 100 |  | 100 | 100 | 100 | 80 | 80 |  | 80 | 80 | 80 | 80 |  | 80 | 80 |
| CCOC(=O)COc1nn(-c2ccccn2)c(-c2ccc(F)nc2)c1Br [Example I-02] | 90 | 100 |  | 100 | 100 | 100 |  | 90 | 100 | 100 | 90 | 90 | 90 | 100 | 80 | 80 | 80 | 80 |  | 80 |
| C[C@@H](Oc1nn(-c2nc(F)ccc2F)c(-c2cncc(F)c2)c1C1CC1)C(=O)O [Example I-180] | 90 | 90 | 100 | 100 | 100 | 100 | 100 | 100 | 100 | 100 | 80 | 90 |  |  | 80 | 90 | 90 | 80 | 80 | 80 |
| COC(=O)C(C)NC(=O)[C@@H](C)Oc1nn(-c2ccccn2)c(-c2cncc(F)c2)c1Br (some centres unmarked) [Example I-190] |  | 90 | 90 | 100 | 90 | 100 | 80 | 100 | 100 | 100 | 80 | 80 |  |  | 80 | 80 | 90 | 80 | 80 | 90 |
| C[C@@H](Oc1nn(-c2ncccc2F)c(-c2ccc(F)nc2)c1Br)C(=O)O [Example I-10] |  | 100 | 80 | 90 | 100 | 100 | 80 | 100 | 100 | 100 |  | 80 |  |  | 80 | 80 | 80 |  |  | 80 |
| CCOC(=O)COc1nn(-c2ncccc2F)c(-c2cncc(F)c2)c1C1CC1 [Example I-174] |  | 90 | 100 | 100 | 90 | 100 | 100 | 100 | 100 | 100 | 80 | 80 | 80 | 90 |  |  | 80 | 80 | 80 | 80 |
| C[C@@H](Oc1nn(-c2ncccc2F)c(-c2ccc(F)nc2)c1Br)C(=O)O [Example I-18] | 90 | 100 | 90 | 90 | 100 | 100 | 90 | 100 | 100 | 100 | 80 | 80 |  |  | 80 | 80 |  |  |  | 80 |
